Assay results reported in patent publication US20260216214A1, “ANALGESIC COMPOSITIONS, METHOD OF MANUFACTURE AND USES THEREOF” (University of Connecticut, priority 2022, published 2026).
Entries after “also recorded” stand apart in the source; their conditions may differ. Where a name gives a salt, the structure may show the parent alone.

Legend:
[1] = test system: LPS activated macrophages; experiment: Cytokine gene expression by RT-PCR in LPS activated bone marrow macrophages; assay type: cell-based; details: PEA 50 μM in DMSO, LPS 200 ng/ml, 24 hours; versus LPS alone
Description: Bone marrow macrophages were cultured for 24 hours, followed by treatment with lipopolysaccharides (LPS) from Escherichia coli O111:B4 (to activate macrophages) and the endocannabinoid molecule, dissolved in dimethyl sulfoxide (DMSO). After 24 hours of treatment, the cells are lysed, and the RNA collected. Gene expression is determined using RT-PCR. The expression of inflammatory cytokines such as Tumor Necrosis Factor Alpha (TNF-α), Interleukin-1-Beta […] and Interleukin-6 are used to determine the anti-inflammatory effect of the endocannabinoid solution. For example, macrophages were cultured for 24 hours and treated with LPS (200 ng/ml) and PEA (50 μM). After 24 hours, cells were lysed, and the RNA collected.
Bone marrow macrophages are cultured for 24 hours, followed by treatment with lipopolysaccharides (to activate macrophages) and the endocannabinoid dissolved in DMSO or endocannabinoid nanoparticle formulation at the same concentration. 24 hours after treatment, the cells were lysed, and the RNA collected. Gene expression is determined using RT-PCR. The expression of inflammatory cytokines such as Tumor Necrosis Factor Alpha (TNF-α), and Interleukin-1-Beta (IL1β) is used to determine the anti-inflammatory effect of the endocannabinoid solution.

[2] = test system: female Sprague Dawley Rats injected with mono-iodoacetate to induce OA; experiment: Paw withdrawal threshold with Electronic Von Frey in MIA induced OA rats (Examples 8-9); assay type: in vivo, rat
Description: This example was conducted to determine in-vivo pain response. […] Pain response was assessed using Von Frey filaments that measure mechanical allodynia. Paw withdrawal threshold was measured using Electronic Von Frey [IITC]. For example, female Sprague Dawley Rats were injected with 30 μL of mono-iodoacetate solution to induce OA. […] The results were compared to rodents with 2 injections of bupivacaine HCl in 0.9% saline (1.5 mg/ml) in those specific periarticular locations. […] FIG. 10 depicts electronic Von Frey measurements done with treatment groups using bupivacaine HCL periarticularly injected at 2 locations alone and periarticular injection of PEA nanoparticles with bupivacaine HCL at 2 locations.
This example was conducted to determine the effect of increasing the dosage of the local anesthetic as commonly 5 mg/mL bupivacaine is used clinically. […] For example, female Sprague Dawley Rats were injected with 30 μL of mono-iodoacetate solution (MIA) to induce OA.
Pain response was measured using Von Frey measurements. […] The PEA nanoparticles with high dose of bupivacaine HCL extended pain relief more than 4 weeks compared to a few hours in the high dose bupivacaine HCL alone group. […]

MIA induced OA rats = experiment: Paw withdrawal threshold with Von Frey filaments in MIA induced OA rats (Examples 1-2); assay type: in vivo, rat
Text: Von Frey data typically refers to experimental data collected using the von Frey filaments or hairs, which are instruments commonly used in neuroscience and behavioral research to assess mechanical sensitivity or tactile allodynia (an increased sensitivity to touch, often associated with pain or discomfort) in animals, particularly rodents. The von Frey test involves applying calibrated filaments of varying forces to the skin of an animal, usually the hind paw of a rodent. The animal's response is overserved to determine its sensitivity to mechanical stimuli. The data collected during von Frey testing may include a) Threshold Response: The force or bending pressure at which the animal first responds to the filament. This is often referred to as the “withdrawal threshold” and is an indicator of the animal's sensitivity to touch; b) Response Frequency: The number of positive responses (e.g., paw withdrawal, licking, or shaking) to the application of the von Frey filaments. This information provides a measure of the intensity or frequency of the animal's response to the mechanical stimulus; and c) Response Latency: The time it takes for the animal to respond after the application of the von Frey filament. A shorter response latency may indicate increased sensitivity.
The injections were 50 μL each and the Bupivacaine HCL (1.5 mg/mL) was dissolved in 0.9% saline. […] FIG. 1 depicts the locations in the knee where the periarticular injections of only bupivacaine were administered.
Periarticular injections of local anesthetics into these specific locations can prolong the duration of analgesia compared to intra-articular injections into the knee joint. […]
FIG. 3 is a graph that depicts the change from the baseline pre-injury values of the animals versus time in days. […] FIG. 3 depicts the paw withdrawal threshold as measured using Von Frey filaments. in MIA induced OA rats.

[3] = test system: female Sprague Dawley Rats injected with mono-iodoacetate to induce OA; experiment: Joint diameter (vernier caliper) as measure of joint inflammation in MIA induced OA rats; assay type: in vivo, rat; details: periarticular, bupivacaine HCl 1.5 mg/ml, 50 μL/location
Description: This example was conducted to determine in-vivo inflammation. […] The joint inflammation is assessed via vernier caliper measurements. For example, female Sprague Dawley Rats were injected with 30 μL of mono-iodoacetate solution to induce OA. […] The injections were done under X-ray guidance using a C-arm for increased precision. Inflammation was assessed using a vernier caliper at the knee joint. […] Vernier caliper measurements show reduced inflammation in the bupivacaine+PEA nanoparticles group compared to the bupivacaine HCL only group at day 3 and day 7. At day 7, the inflammation in the bupivacaine+PEA nanoparticles group is not different from the baseline. At day 3, the inflammation in the bupivacaine HCl only group is higher than the MIA group. Statistical tests were conducted using only one way ANOVA with Brown Forsythe and Welsh tests.
FIG. 9 is a graph depicting joint diameter upto 21 days. […] The treatment groups are high does of bupivacaine HCl at 1 location (N=4), periarticular PEA nanoparticles at 2 locations +high does bupivacaine HCL at 1 location (N=5) with control of MIA (3 mg; N=6). The treatment groups with PEA nanoparticles show anti-inflammatory effects for 3 weeks. Statistical tests were conducted using only one way ANOVA with Brown Forsythe and Welsh tests.

Row | SMILES | gene expression of IL6 [1] | gene expression of ILβ [1] | gene expression of TNF-α [1] | duration of pain relief ([2]; bupivacaine 3 mg/ml, 50 μL at one location (superior lateral)) | hypoalgesic and analgesic efficacy on increasing the bupivacaine dose ([2]; bupivacaine increased from 1.5mg/ml to 3 mg/mL (0.15% to 0.3%), HCl) | duration of efficacy (analgesia) (MIA induced OA rats; intraarticular injection of same amount of bupivacaine HCL) [days] | duration of efficacy (analgesia) (MIA induced OA rats; periarticular injection at 4 locations, 50 μL each, 1.5 mg/mL in 0.9% saline) [days] | pain relief versus disease control (paw withdrawal threshold, change from baseline) (MIA induced OA rats; periarticular injections at 1, 2 or 4 locations) | joint diameter at day 3 [3]
1 | CCCCCCCCCCCCCCCC(=O)NCCO [PEA, palmitoylethanolamide] | significantly less than in the LPS alone control group | significantly less than in the LPS alone control group | significantly less than in the LPS alone control group |  |  |  |  |  | 
2 | CCCCN1CCCCC1C(=O)Nc1c(C)cccc1C (stereo not drawn) [bupivacaine HCL, bupivacaine HCl] |  |  |  | a few hours | significant reduction in the hypoalgesic and analgesic effect; also recorded: significantly reduced the efficacy | 3 | 17 | prolonged pain relief compared to the disease control | significantly increased joint diameter or inflammation compared to the injection of MIA alone
